Experimental data published in PMC9241959 (Chemical Science, 2022).

Target: Phaseolus vulgaris erythroagglutinin (PHA-E) (Phaseolus vulgaris, UniProt P05088)
Test: glycan microarray, fluorescence
Assay type: binding
Details: labelled compound: immobilised AEAB conjugate at reducing end

Sequence of Phaseolus vulgaris erythroagglutinin (PHA-E) (P05088 22-275 limits assumed): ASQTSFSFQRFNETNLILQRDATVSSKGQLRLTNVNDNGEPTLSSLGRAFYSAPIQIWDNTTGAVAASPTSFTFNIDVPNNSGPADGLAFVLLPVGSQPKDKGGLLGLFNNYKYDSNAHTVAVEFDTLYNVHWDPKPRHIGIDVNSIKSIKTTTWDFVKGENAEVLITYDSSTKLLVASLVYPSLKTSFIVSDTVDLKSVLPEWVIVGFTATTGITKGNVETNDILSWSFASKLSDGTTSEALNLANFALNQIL

## CC(=O)N[C@H]1[C@H](O[C@H]2[C@H](O)[C@@H](NC(C)=O)C(O)O[C@@H]2CO)O[C@H](CO)[C@@H](O[C@@H]2O[C@H](CO[C@H]3O[C@H](CO)[C@@H](O)[C@H](O)[C@@H]3O[C@@H]3O[C@H](CO)[C@@H](O)[C@H](O)[C@H]3NC(C)=O)[C@@H](O[C@@H]3O[C@H](CO)[C@@H](O)[C@H](O)[C@H]3NC(C)=O)[C@H](O[C@H]3O[C@H](CO)[C@@H](O)[C@H](O)[C@@H]3O[C@@H]3O[C@H](CO)[C@@H](O)[C@H](O)[C@H]3NC(C)=O)[C@@H]2O)[C@@H]1O (stereo partly shown) [compound 1, agalacto bisected N-glycan 1]
  RFU at 1 ug/mL lectin: 9197 RFU
